# In patent US3989730A, “Bone-seeking technetium-99m complex” (priority 1973, dated 1976):
# Where two headings read alike, the source gives them in different places.
# Key:
# [1] = Simultaneous distribution of 99mTc-EHDP and 85Sr in rabbits at 1-24 hours after intravenous injection; format: in vivo, adult New Zealand albino rabbits; details: for Blood, % Dose in Whole Organ: blood as 7 % of body weight; for Bone(Avg), % dose in whole organ: bone as 10 % of body weight; for Marrow, % Dose in Whole Organ: marrow as 2.2 % of body weight
# Protocol: Adult New Zealand albino rabbits having an average weight of 3.8 kg were utilized. Strontium-85 was employed as a standard for comparison. […] Each dosage is contained in a volume of 1 ml.
# Multiple samples were counted from the tibia, femur, spine and pelvic bones; the total activity in the skeleton was estimated by assuming the whole skeleton consisted of equal proportions by weight of tibia, spine, femur and pelvis and that the skeletal mass was 10% of the body weight. […] The whole liver and both kidneys were weighed and multiple samples from each were counted to measure the total activity in each organ.
# [2] = tested on: callous of three week-old fractures of tibia; test: Localization in callous of three week-old tibial fractures (rabbits), compared with strontium-85; format: in vivo, albino rabbits
# Protocol: Adult New Zealand albino rabbits having an average weight of 3.8 kg were utilized. Strontium-85 was employed as a standard for comparison. In a typical experiment 20-250 μCi (i.e., containing approximately 1 mg/kg as the free acid of body weight) of 99mTc EHDP were injected intravenously into the rabbits through the marginal ear vein and compared with 10-20 μ Ci 85 Sr chloride administered simutaneously. Each dosage is contained in a volume of 1 ml.
# The animals were sacrificed serially from 1 to 24 hours after injection and the activities in major organs were determined by counting multiple samples from each organ in a scintillation well counter (the technetium-99m counts were corrected for the Compton contributions from the strontium-85 activity in the technetium-99m energy window). Multiple samples were counted from the tibia, femur, spine and pelvic bones; the total activity in the skeleton was estimated by assuming the whole skeleton consisted of equal proportions by weight of tibia, spine, femur and pelvis and that the skeletal mass was 10% of the body weight. The red marrow was sampled from the femur and the total marrow was assumed to be 2.2% of the total body weight. Similarly, blood volume was assumed to be 7% and the skeletal muscle 43% of the body weight. The whole liver and both kidneys were weighed and multiple samples from each were counted to measure the total activity in each organ.
# In another series of experiments carried out as described above, localization of technetium from its tin-phosphonate complex was determined in the callous of three week-old fractures of tibia in albino rabbits, again in comparison with strontium-85. Comparative radioassay of technetium-99m administered as the pertechnetate was measured in the callous of tibial fractures in rabbits at one and four hours after administration.
# [3] = 2 Hrs
# [4] = cited from earlier work
substance,measurement,setting,value
"tin-1-hydroxy-ethane-1,1-diphosphonate [99mTc-EHDP]","Blood, % dose / 1 % body weight",[1]; 1 Hr,1.23 % dose / 1 % body weight
same,"Bone(Avg), % dose / 1 % body weight",[1]; 1 Hr,4.66 % dose / 1 % body weight
same,"Femur, % dose / 1 % body weight",[1]; 1 Hr,3.85 % dose / 1 % body weight
same,"Kidneys, % Dose in Whole Organ",[1]; 1 Hr,2.40 % dose
same,"Kidneys, % dose / 1 % body weight",[1]; 1 Hr,3.93 % dose / 1 % body weight
same,"Liver, % Dose in Whole Organ",[1]; 1 Hr,0.80 % dose
same,"Liver, % dose / 1 % body weight",[1]; 1 Hr,0.30 % dose / 1 % body weight
same,"Marrow, % dose / 1 % body weight",[1]; 1 Hr,0.36 % dose / 1 % body weight
same,"Muscle, % dose / 1 % body weight",[1]; 1 Hr,0.15 % dose / 1 % body weight
same,"One Femur, % Dose in Whole Organ",[1]; 1 Hr,0.82 % dose
same,"Pelvis, % dose / 1 % body weight",[1]; 1 Hr,7.15 % dose / 1 % body weight
same,"Spine, % dose / 1 % body weight",[1]; 1 Hr,5.87 % dose / 1 % body weight
same,"Tibia, % dose / 1 % body weight",[1]; 1 Hr,2.17 % dose / 1 % body weight
same,"Urine, % Dose",[1]; 1 Hr,30.9 % dose
same,"Blood, % Dose in Whole Organ",[1]; 1 Hr,8.61 % dose
same,"Bone(Avg), % dose in whole organ",[1]; 1 Hr,46.6 % dose
same,"Marrow, % Dose in Whole Organ",[1]; 1 Hr,0.70 % dose
same,"Blood, % dose / 1 % body weight",[1]; 2 Hrs,0.37 % dose / 1 % body weight
same,"Bone(Avg), % dose / 1 % body weight",[1]; 2 Hrs,4.82 % dose / 1 % body weight
same,"Femur, % dose / 1 % body weight",[1]; 2 Hrs,3.94 % dose / 1 % body weight
same,"Kidneys, % Dose in Whole Organ",[1]; 2 Hrs,1.22 % dose
same,"Kidneys, % dose / 1 % body weight",[1]; 2 Hrs,2.72 % dose / 1 % body weight
same,"Liver, % Dose in Whole Organ",[1]; 2 Hrs,0.42 % dose
same,"Liver, % dose / 1 % body weight",[1]; 2 Hrs,0.18 % dose / 1 % body weight
same,"Marrow, % dose / 1 % body weight",[1]; 2 Hrs,0.17 % dose / 1 % body weight
same,"Muscle, % dose / 1 % body weight",[1]; 2 Hrs,0.04 % dose / 1 % body weight
same,"One Femur, % Dose in Whole Organ",[1]; 2 Hrs,0.84 % dose
same,"Pelvis, % dose / 1 % body weight",[1]; 2 Hrs,7.40 % dose / 1 % body weight
same,"Spine, % dose / 1 % body weight",[1]; 2 Hrs,5.44 % dose / 1 % body weight
same,"Tibia, % dose / 1 % body weight",[1]; 2 Hrs,2.49 % dose / 1 % body weight
same,"Urine, % Dose","[1]; 2 Hrs, 1 mg/kg",51.8 % dose
same,"Blood, % Dose in Whole Organ",[1]; 2 Hrs,2.58 % dose
same,"Bone(Avg), % dose in whole organ",[1]; 2 Hrs,48.2 % dose
same,"Marrow, % Dose in Whole Organ",[1]; 2 Hrs,0.38 % dose
same,"Blood, % dose / 1 % body weight",[1]; 4 Hrs,0.13 % dose / 1 % body weight
same,"Bone(Avg), % dose / 1 % body weight",[1]; 4 Hrs,4.74 % dose / 1 % body weight
same,"Femur, % dose / 1 % body weight",[1]; 4 Hrs,3.86 % dose / 1 % body weight
same,"Kidneys, % Dose in Whole Organ",[1]; 4 Hrs,0.94 % dose
same,"Kidneys, % dose / 1 % body weight",[1]; 4 Hrs,1.95 % dose / 1 % body weight
same,"Liver, % Dose in Whole Organ",[1]; 4 Hrs,0.28 % dose
same,"Liver, % dose / 1 % body weight",[1]; 4 Hrs,0.11 % dose / 1 % body weight
same,"Marrow, % dose / 1 % body weight",[1]; 4 Hrs,0.38 % dose / 1 % body weight
same,"Muscle, % dose / 1 % body weight",[1]; 4 Hrs,0.03 % dose / 1 % body weight
same,"One Femur, % Dose in Whole Organ",[1]; 4 Hrs,0.81 % dose
same,"Pelvis, % dose / 1 % body weight",[1]; 4 Hrs,7.41 % dose / 1 % body weight
same,"Spine, % dose / 1 % body weight",[1]; 4 Hrs,5.52 % dose / 1 % body weight
same,"Tibia, % dose / 1 % body weight",[1]; 4 Hrs,2.16 % dose / 1 % body weight
same,"Urine, % Dose","[1]; 4 Hrs, 1 mg/kg",53.4 % dose
same,"Blood, % Dose in Whole Organ",[1]; 4 Hrs,0.89 % dose
same,"Bone(Avg), % dose in whole organ",[1]; 4 Hrs,47.4 % dose
same,"Marrow, % Dose in Whole Organ",[1]; 4 Hrs,0.83 % dose
same,"Blood, % dose / 1 % body weight",[1]; 24 Hrs,0.07 % dose / 1 % body weight
same,"Bone(Avg), % dose / 1 % body weight",[1]; 24 Hrs,4.14 % dose / 1 % body weight
same,"Femur, % dose / 1 % body weight",[1]; 24 Hrs,3.42 % dose / 1 % body weight
same,"Kidneys, % Dose in Whole Organ",[1]; 24 Hrs,0.63 % dose
same,"Kidneys, % dose / 1 % body weight",[1]; 24 Hrs,1.29 % dose / 1 % body weight
same,"Liver, % Dose in Whole Organ",[1]; 24 Hrs,0.43 % dose
same,"Liver, % dose / 1 % body weight",[1]; 24 Hrs,0.28 % dose / 1 % body weight
same,"Marrow, % dose / 1 % body weight",[1]; 24 Hrs,0.19 % dose / 1 % body weight
same,"Muscle, % dose / 1 % body weight",[1]; 24 Hrs,0.02 % dose / 1 % body weight
same,"One Femur, % Dose in Whole Organ",[1]; 24 Hrs,0.76 % dose
same,"Pelvis, % dose / 1 % body weight",[1]; 24 Hrs,5.70 % dose / 1 % body weight
same,"Spine, % dose / 1 % body weight",[1]; 24 Hrs,5.30 % dose / 1 % body weight
same,"Tibia, % dose / 1 % body weight",[1]; 24 Hrs,2.10 % dose / 1 % body weight
same,"Blood, % Dose in Whole Organ",[1]; 24 Hrs,0.49 % dose
same,"Bone(Avg), % dose in whole organ",[1]; 24 Hrs,41.5 % dose
same,"Marrow, % Dose in Whole Organ",[1]; 24 Hrs,0.42 % dose
same,skeletal concentrations compared with 85Sr,[1]; rabbits,similar
same,soft tissue and blood concentrations compared with 85Sr,"[1]; various times, rabbits",much lower than those for 85 Sr
same,"Callus, % dose / 1 % body weight",[2]; 1 Hr,24.7 % dose / 1 % body weight
same,"Callus, % dose / 1 % body weight",[2]; 4 Hrs,28.9 % dose / 1 % body weight
same,concentration in the callous compared with 85Sr,[2]; rabbits,somewhat lower than that of 85 Sr
same,"Blood, % Dose in Whole Organ",[3]; EHDP 0.01 mg/kg,0.99 % Dose
same,"Kidneys, % Dose in Whole Organ",[3]; EHDP 0.01 mg/kg,0.81 % Dose
same,"Liver, % Dose in Whole Organ",[3]; EHDP 0.01 mg/kg,0.53 % Dose
same,"Marrow, % Dose in Whole Organ",[3]; EHDP 0.01 mg/kg,0.34 % Dose
same,"Muscle, % Dose in Whole Organ",[3]; EHDP 0.01 mg/kg,0.78 % Dose
same,"One Femur, % Dose in Whole Organ",[3]; EHDP 0.01 mg/kg,2.20 % Dose
same,"One Tibia, % Dose in Whole Organ",[3]; EHDP 0.01 mg/kg,2.05 % Dose
same,"Urine, % Dose",[3]; EHDP 0.01 mg/kg,46.7 % Dose
same,"Blood, % Dose in Whole Organ",[3]; EHDP 0.05 mg/kg,1.35 % Dose
same,"Kidneys, % Dose in Whole Organ",[3]; EHDP 0.05 mg/kg,2.9 % Dose
same,"Liver, % Dose in Whole Organ",[3]; EHDP 0.05 mg/kg,1.61 % Dose
same,"Marrow, % Dose in Whole Organ",[3]; EHDP 0.05 mg/kg,0.78 % Dose
same,"Muscle, % Dose in Whole Organ",[3]; EHDP 0.05 mg/kg,1.33 % Dose
same,"One Femur, % Dose in Whole Organ",[3]; EHDP 0.05 mg/kg,2.44 % Dose
same,"One Tibia, % Dose in Whole Organ",[3]; EHDP 0.05 mg/kg,2.22 % Dose
same,"Urine, % Dose",[3]; EHDP 0.05 mg/kg,37.3 % Dose
same,"Blood, % Dose in Whole Organ",[3]; EHDP 0.1 mg/kg,1.02 % Dose
same,"Kidneys, % Dose in Whole Organ",[3]; EHDP 0.1 mg/kg,0.63 % Dose
same,"Liver, % Dose in Whole Organ",[3]; EHDP 0.1 mg/kg,0.19 % Dose
same,"Marrow, % Dose in Whole Organ",[3]; EHDP 0.1 mg/kg,0.20 % Dose
same,"Muscle, % Dose in Whole Organ",[3]; EHDP 0.1 mg/kg,0.98 % Dose
same,"One Femur, % Dose in Whole Organ",[3]; EHDP 0.1 mg/kg,2.82 % Dose
same,"One Tibia, % Dose in Whole Organ",[3]; EHDP 0.1 mg/kg,2.44 % Dose
same,"Urine, % Dose",[3]; EHDP 0.1 mg/kg,30.4 % Dose
same,"Blood, % Dose in Whole Organ",[3]; EHDP 0.5 mg/kg,1.503 % Dose
same,"Kidneys, % Dose in Whole Organ",[3]; EHDP 0.5 mg/kg,1.10 % Dose
same,"Liver, % Dose in Whole Organ",[3]; EHDP 0.5 mg/kg,0.260 % Dose
same,"Marrow, % Dose in Whole Organ",[3]; EHDP 0.5 mg/kg,0.19 % Dose
same,"Muscle, % Dose in Whole Organ",[3]; EHDP 0.5 mg/kg,1.22 % Dose
same,"One Femur, % Dose in Whole Organ",[3]; EHDP 0.5 mg/kg,1.75 % Dose
same,"One Tibia, % Dose in Whole Organ",[3]; EHDP 0.5 mg/kg,1.43 % Dose
same,"Urine, % Dose",[3]; EHDP 0.5 mg/kg,55.37 % Dose
technetium-99m,external photon yield,[4]; gamma emission of 140 KeV,90%
same,half-life of radionuclide,[4]; radioactive decay,6 h
